From a compilation of properties of binary mixtures (doi:10.1021/acs.jpcb.5b11900)

Assay: xn = mol fraction of the nth substance listed
Conditions: 101 kPa

CC[NH2+]CC.O=[N+]([O-])[O-] + CC[NH3+].O=[N+]([O-])[O-]
Conditions | electrical conductivity [S/m] | viscosity [mPa·s]
313.15 K, x1 = 0.2501 | 2.84 | 23.4
313.15 K, x1 = 0.2998 | 2.84 | 23.3
318.15 K, x1 = 0.0499 | 3.55 | 20.2
318.15 K, x1 = 0.1999 | 3.15 | 21.8
318.15 K, x1 = 0.2501 | 3.2 | 20.4
318.15 K, x1 = 0.3501 | 2.97 | 21.6
323.15 K, x1 = 0.0499 | 3.97 | 17.8
323.15 K, x1 = 0.0998 | 3.85 | 17.3
323.15 K, x1 = 0.2501 | 3.59 | 17.8
323.15 K, x1 = 0.2998 | 3.59 | 17.8
323.15 K, x1 = 0.3501 | 3.34 | 18.8
328.15 K, x1 = 0.0499 | – | 15.7
328.15 K, x1 = 0.1499 | – | 15.8
328.15 K, x1 = 0.1999 | – | 16.7
328.15 K, x1 = 0.2501 | – | 15.7
328.15 K, x1 = 0.3501 | – | 16.5
333.15 K, x1 = 0.0499 | – | 13.9
333.15 K, x1 = 0.0998 | – | 13.6
333.15 K, x1 = 0.1499 | – | 14
333.15 K, x1 = 0.1999 | – | 14.7
333.15 K, x1 = 0.2501 | – | 13.9
333.15 K, x1 = 0.2998 | – | 13.9
333.15 K, x1 = 0.3501 | – | 14.6
338.15 K, x1 = 0.0499 | – | 12.5
338.15 K, x1 = 0.0998 | – | 12.1
338.15 K, x1 = 0.1499 | – | 12.5
338.15 K, x1 = 0.1999 | – | 13.1
338.15 K, x1 = 0.2501 | – | 12.5
338.15 K, x1 = 0.3501 | – | 13
343.15 K, x1 = 0.0998 | – | 10.8
343.15 K, x1 = 0.1999 | – | 11.9
343.15 K, x1 = 0.2501 | – | 11.2
343.15 K, x1 = 0.2998 | – | 10.9
343.15 K, x1 = 0.3501 | – | 11.7
348.15 K, x1 = 0.0998 | – | 9.8
348.15 K, x1 = 0.1499 | – | 10.1
348.15 K, x1 = 0.1999 | – | 10.7
348.15 K, x1 = 0.2501 | – | 10.1
348.15 K, x1 = 0.2998 | – | 9.6
348.15 K, x1 = 0.3501 | – | 10.5
353.15 K, x1 = 0.0499 | – | 9.2
353.15 K, x1 = 0.2501 | – | 9.14
353.15 K, x1 = 0.2998 | – | 8.69
